Assay results: patent US7659252B2, “Transdermal delivery peptides and method of use thereof” (Novomed Technologies, Inc. (Shanghai), priority 2005, dated 2010)

Tests used:
male Sprague-Dawley rats [1] = assay: Transdermal PT-141 delivery: penile erections, chasing, mounting; assay type: in vivo, rat; settings: cream, 1 h observation
Procedure: (§1) All behavioral studies were performed from 9:00 am to 4:00 pm at 24±1° C. While the animals were anesthetized with Urethane, the hair in an area of approximately 3.0 cm×3.0 cm in the interscapular region was carefully trimmed using scissors, with caution not to damage the skin (rats with any visible sign of skin damage were not used). Rats were allowed to recover for at least 24 hours before the experiments. One hundred ul cream containing indicated amounts of PT-141 was placed on the exposed skin and spread evenly using the side of a pipet tip.
Testing rats were divided into four groups with each group contain 6 rats.
Immediately after administration, rats were placed into individual polystyrene cages (32 cm long, 30 cm wide, 30 cm high) for behavioral observation. […] According to methods described by Berendsen and Broekkamp (1987, Eur. J. Pharmacol. 135(3):279-87), a penile erection was present when the following is observed: repeated pelvic thrust immediately followed by an upright position, an emerging engorged penis which the rat licks while eating the ejaculate. In addition, chasing was observed when the male moves forward along the female's side with its mouth licking the female's genital area, while mounting was present when the male's both front feet are off the ground and plant on the female's rump without ejaculation (Naby et al., 1992, Horm. Behav. 26:24; Randy et al., 1995, Nature 378:383).

[2] = tested on: streptozotocin-induced diabetic rats; assay: Transdermal insulin delivery: serum insulin and blood glucose; assay type: in vivo, rat; settings: for transdermal activity for delivering insulin compared to TD-1 / Blood Glucose Mean: 500 μg peptide + 70 μg insulin topical; for transdermal activity for delivering insulin compared to TD-1: 5 hrs; for Blood Glucose Mean: 5 hr value as % of the 0 hr value
Procedure: Insulin delivery: In particular, male Wistar rats were given intraperitoneal injection of straptozotocin (60 mg/kg; Sigma-Aldrich, St. Louis, […].) to make these rats in diabetic states. Seven to 10 days post injection blood glucose level was measured using One-Touch Ultra Glucometer (LifeScan, Milpitas, Calif.). The straptozocin-induced (SD-induced) diabetic rats with blood glucose level of over 20 mmol/l (normal rats are between 4 and 6 mmol/l) were selected and randomly assigned to different treatment groups, with 6 rats for each group. […] The SLA/PP is a chemical enhancer combination recently identified from high-throughput screening (Karande et al., […], Nature Biotech. 22:192). Moreover, in other transdermal treatment groups, 100 μl saline was given to each rat in that group. For the subcutaneous treatment group, 14 μg of insulin per rat was injected.
Blood was drawn from the rat tail vein at these time points and assayed for blood glucose as described above and serum insulin by radioimmunoassay (Immunotech, Czech).
Blood glucose and serum insulin were measured before and 5 hrs. after the administration as described above.

male Sprague-Dawley rats [3] = assay: Transdermal apomorphine delivery, APO-induced penile erections; assay type: in vivo, rat; settings: for effect on APO transdermal delivery (APO-induced penile erections): peptide 2.0 mg/kg + APO 0.8 mg/kg, cream, 2 h observation
Procedure: as §1, with “apomorphine (APO)” for “PT-141”
Immediately after administration, rats were placed into individual polystyrene cages (32 cm long, 30 cm wide, 30 cm high) for behavioral observation. […] According to methods described by Berendsen and Broekkamp (1987, Eur. J. Pharmacol. 135(3):279-87), a penile erection was present when the following is observed: repeated pelvic thrust immediately followed by an upright position, an emerging engorged penis which the rat licks while eating the ejaculate.

hair follicles = assay: Microscopy of skin sections: hair follicle penetration; assay type: in vivo, rat; settings: for follicular penetration of insulin-FITC: 10 μg insulin-FITC co-administered with enhancer, 2 h, abdominal skin
Procedure: In particular, Insulin-FITC (Xi-an Huacheng, Xi-an, China) was dissolved in a small amount of DMF and subsequently diluted in saline for topical administration (final DMF concentration was <0.2%). […] After 2 hours the skin was carefully cleaned by 70% isopropyl alcohol and harvested by dissecting. The isolated skin was fixed with ice-cold 4% paraformaldehyde in 0.1 M phosphate buffer (PH 7.4) overnight. Following several washes with 10 mM phosphate-buffered saline (PBS PH7.4), skin samples were immersed in PBS containing 4.5% sucrose for 24 hours and then dehydrated in 10 mM PBS containing 30% sucrose till deposition. Floating horizontal and vertical sections with a thickness of 20 μm were obtained on a freezing microtome (CM1900 LEICA, Heidelberger, Nussloch, Germany). Cryosections were mounted onto poly-L-lysine-coated glasses, dried at room temperature and enveloped with 10 μl […] Mounting Medium (Vector Laboratories, Burlingame, Calif.). Fluorescence photomicrographs of the sections were obtained with OLYMPUS IX-70 microscope (OLYMPUS, Tokyo, Japan) using a filter set having excitation and emission length at 490-495 nm and 520-530 nm, respectively.

Male Wistar rats = assay: Phage delivery across trimmed abdominal skin, phage titre in tail-vein blood; assay type: in vivo, rat
Procedure: Phage delivery: Male Wistar rats (180 g to 220 g) were housed at a constant temperature (22° C.) and relative humidity (60%) with a fixed 12 hr. light/dark cycle, and free access to food and water. While the animals were anesthetized with Vrethane (5 ml/kg of 20% solution), the hair in an area of approximately 3.0 cm×3.0 cm on the abdomen was carefully trimmed using scissors, with caution not to damage the skin (rats with any visible sign of skin damage were not used). […] One hour after the phage administration blood was withdrawn from the tail vein and immediately assayed for phage titre according to manufacturer's protocol.

insulin = target: T1, insulin (Sus scrofa, UniProt P01315); assay: ELISA direct interaction between TD-1 and insulin (incl. reverse scheme); assay type: binding, porcine
T1 construct: pharmaceutical-grade (>98%, 30 IU/mg) porcine insulin; purchased Xuzhou Pharmaceuticals
Procedure: Insulin (100 μg) and a guinea pig anti-porcine insulin antibody (Atom High-Tech, used at 1:1000 dilution), in 100 μl of PBS, was added to each well and incubated for 2 hrs. at 37° C. After washing 6× with PBST, the plate was incubated with 1:2000 dilution of anti-guinea pig IgG conjugated with HRP (Chang-Dao Biotechnology Co. Ltd., Shanghai, China) for 1 hr. at 37° C. The plate was washed 6× with PBST, followed by the addition of 100 μl/well of TMB substrate. After incubation at room temperature for 10 mins and additional of stop solution (1 M H2SO4), absorbance was read at 450/630 nm in an ELISA reader. As a positive control, 1 ng to 1 μg of insulin was coated directly on the plates and was detected by the same procedure as described above. In areverse interaction scheme, ELISA plate wells were coated with 1 μg to 1 mg of insulin, blocked with BSA, incubated with TD-1-AngII fusion peptide (100 μg per well), incubated with rabbit polyclonal antibody against human angiotensin II (Atom High-Tech, used at 1:1000) and 1:2000 of anti-rabbit IgG conjugated with HRP (Zhong Shan Golden Bridge Biotechnology, Beijing, China), and finally assayed by TMB color reactionm using the same protocol as described above. The control for this reverse scheme experiment used 1 μg of TD-1-AngII coated directly to the wells.

^125I-insulin = target: T2, ^125I-insulin (Sus scrofa, UniProt P01315); assay: Direct interaction between coated TD-1 and ^125I-insulin; assay type: binding, porcine; settings: up to 1 mg TD-1 per well
T2 construct: purchased Beijing Atom HighTech
Procedure: After extensive washing with PBST (PBS+0.1% Tween-20), radioactivity was measured with Gamma Radioimmunoassay Counter.

[4] = DLS measurements of insulin with or without TD-1; assay type: physicochemical
Procedure: The solutions were transferred to a centrifuge tube and spun for 10 min at 10000 rpm. 40 μl of the supernatant were filtered by ANODISC™ membrane filter with a pore size of 0.02 μm (Whatman International, Maidstone, UK) and taken for DLS measurement using DynaPro™ MS 800 (Wyatt technology Corporation/Protein Solutions, Santa Barbara, Calif.).

[5] = PT-141 160 μg/kg + peptide 240 μg/kg
[6] = peptide topically co-administered with PH-1
[7] = 500 μg TD-1 + 70 μg porcine insulin, topical
[8] = co-administered with 70 μg insulin, 5 hours
[9] = insulin-FITC 10 μg + TD-1, time course
[10] = co-administered TD-1 fixed at 500 μg, 5 hours

T1 sequence (P01315 25-54 limits assumed): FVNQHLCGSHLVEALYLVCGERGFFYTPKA
T1 sequence (P01315 88-108 limits assumed): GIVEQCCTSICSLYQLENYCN
T2 sequence (P01315 25-54 limits assumed): as the sequence (P01315 25-54 limits assumed) above

For `CCCC[C@H](NC(C)=O)C(=O)N[C@H]1CC(=O)NCCCC[C@@H](C(=O)O)NC(=O)[C@H](Cc2c[nH]c3ccccc23)NC(=O)[C@H](CCCNC(=N)N)NC(=O)[C@@H](Cc2ccccc2)NC(=O)[C@H](Cc2c[nH]cn2)NC1=O` [PT-141, Ac-Nle-Asp-His-D-Phe-Arg-Trp-Lys-OH], the “numbers of PEs, chasing and mounting” value (male Sprague-Dawley rats [1]; PT-141 160 μg/kg alone) was “did not significantly increase”.

In the case of ACNATLPHQCG [AP-1, reference compound], the “numbers of PEs, chasing and mounting” value (male Sprague-Dawley rats [1]; [5]) is reported as “did not significantly increase”, the “elevating serum insulin and lowering blood glucose levels” value ([2]; control enhancer co-administered with 70 μg insulin, topical) is reported as “ineffective” and the “effect on APO transdermal delivery (APO-induced penile erections)” value (male Sprague-Dawley rats [3]) is reported as “no effect”. The “follicular penetration of insulin-FITC” value (hair follicles) was “did not lead to follicular penetration”, the “transdermal activity relative to phage PH-1” value (Male Wistar rats; 1 hour post topical administration) was “less than 0.2%” and the “effect on transdermal activity of phages carrying the TD-2 peptide (PH-1)” value (Male Wistar rats; [6]) was “no effect”.

In the case of ACSASPSKHCG [TD-24], the “transdermal activity for delivering insulin compared to TD-1” value (from here on “transdermal activity … compared to TD-1”) [2] is reported as “statistically significant loss of activity” and the “Blood Glucose Mean” value [2] is reported as 82.17%.

For ACSSSASKHCG [TD-3], the “transdermal activity … compared to TD-1” value [2] was “almost completely loss of activity” and the “Blood Glucose Mean” value [2] was 89.80%.

With ACSSSPAKHCG [TD-6] the “transdermal activity … compared to TD-1” value [2] was “statistically significant loss of activity” and the “Blood Glucose Mean” value [2] was 66.65%.

With ACSSSPSAHCG [TD-22] the “transdermal activity … compared to TD-1” value [2] was “statistically significant loss of activity” and the “Blood Glucose Mean” value [2] was 85.90%.

In the case of ACSSSPSDHCG [TD-4], the “transdermal activity … compared to TD-1” value [2] is reported as “almost completely loss of activity” and the “Blood Glucose Mean” value [2] is reported as 89.68%.

For ACSSSPSKACG [TD-23], the “transdermal activity … compared to TD-1” value [2] was “statistically significant loss of activity” and the “Blood Glucose Mean” value [2] was 81.36%.

For ACSSSPSKHCG [TD-1], the “numbers of PEs, chasing and mounting” value (male Sprague-Dawley rats [1]; [5]) was “significantly increased”, the “time at which decrease of blood glucose was seen” value [2, 7] was 2 h and the “time of lowest blood glucose level” value [2, 7] was 8 h. For the same compound, the “lowest blood glucose level” value ([2]; 500 μg TD-1 + 70 μg porcine insulin, topical, at 8 hours) was < 25 % of the initial blood glucose level, the “effect on blood glucose or serum insulin level” value ([2]; 500 μg TD-1 alone, without insulin, topical) was “no effect” and the “Blood Glucose Mean” value [2] was 38.68%. The “TD-1 amount at which transdermal-enhancing effect reached maximum” value [2, 8] was greater than 500 µg, the “TD-1 amount without significant insulin-elevating and glucose-lowering effect” value [2, 8] was less than 20 µg and the “time at which most PEs occurred” value (male Sprague-Dawley rats [3]; APO 0.8 mg/kg + TD-1 2.0 mg/kg) was “during the second hour”. For the same compound, the “number of PEs” value (male Sprague-Dawley rats [3]; TD-1 0.4 mg/kg + APO 0.8 mg/kg) was “did not significantly increase”, the “transdermal-enhancing effect (number of PEs)” value (male Sprague-Dawley rats [3]; TD-1 0.8, 2.0 and 3.2 mg/kg + APO 0.8 mg/kg) was “reached maximum” and the “effect on APO transdermal delivery (APO-induced penile erections)” value (male Sprague-Dawley rats [3]) was “facilitates transdermal APO delivery”. The “follicular penetration of insulin-FITC” value (hair follicles) was “penetration of insulin-FITC deep into hair follicles”, the “relation of waiting period to extent of follicular penetration of insulin-FITC” value (hair follicles; TD-1 5 min, washed, waiting 0-60 min before insulin-FITC) was “inversely proportional” and the “duration of follicular penetration of insulin-FITC” value (hair follicles; [9]) was “at least 24 hours”. The “earliest time follicular penetration of insulin-FITC detectable” value (hair follicles; [9]) was 30 min, the “time of maximum follicular penetration of insulin-FITC” value (hair follicles; [9]) was 2 h and the “direct binding to insulin (conclusion of binding assays)” value (insulin) was “does not bind insulin directly”. For the same compound, the “insulin bound to precoated TD-1” value (insulin; wells coated with increasing amounts of TD-1, 100 μg insulin) was “No significant amount of insulin was found to bind”, the “tested rats in which enhanced transdermal penetration of a control phage was observed” value (Male Wistar rats; co-administered with control phage, data not shown) was 20% and the “amount that completely abolished the transdermal activity of PH-1” value (Male Wistar rats; [6]) was “over 5 μg”. The “effect on transdermal activity of phages carrying the TD-2 peptide (PH-1)” value (Male Wistar rats; [6]) was “dose-dependent manner” and the “^125I-insulin bound to wells precoated with TD-1” value (^125I-insulin) was “No significant radioactivity above the background level”.

With ACSSSSSKHCG [TD-10] the “transdermal activity … compared to TD-1” value [2] was “only a slight, insignificant decrease in activity” and the “Blood Glucose Mean” value [2] was 53.79%.

For CSSSPSKHC [TD-2], the “transdermal activity … compared to TD-1” value [2] was “statistically significant loss of activity” and the “Blood Glucose Mean” value [2] was 68.44%.

For “insulin: pharmaceutical-grade (>98%, 30 IU/mg) porcine insulin (Xuzhou Pharmaceuticals)”, the “duration of insulin-elevating and glucose-lowering effect” value ([2]; 14 μg insulin, subcutaneous injection) was “less than 5 hours”, the “insulin amount needed to achieve the maximum response” value [2, 10] was no less than 70 µg and the “insulin amount sufficient to significantly enhance serum insulin and lower blood glucose” value [2, 10] was 35 µg. The “MW-R Mean” value ([4]; pH 2.0, saline) was 14,585 Da, the “Radius Mean” value ([4]; pH 2.0, saline) was 1.9 nm and the “MW-R Mean” value ([4]; pH 2.0, saline, listed as Ins) was 14585 Da. For the same compound, the “MW-R Mean” value ([4]; pH 3.0, saline) was 20,343 Da, the “Radius Mean” value ([4]; pH 3.0, saline) was 2.2 nm and the “MW-R Mean” value ([4]; pH 3.0, saline, listed as Ins) was 20343 Da. For the same compound, the “MW-R Mean” value ([4]; pH 7.0, saline) was 32,328 Da, the “Radius Mean” value ([4]; pH 7.0, saline) was 2.6 nm and the “MW-R Mean” value ([4]; pH 7.0, saline, listed as Ins) was 32328 Da.
